Laboratory results reported in patent US11059824B2, “Substituted purines as TLR7 agonists” (Primmune Therapeutics, Inc., priority 2018, dated 2021).
“And” between values parts separate entries of the source, which are not always exact repeats. Equal values may be shown once. Marks after values point to notes of the source that are not given here.

Tests used:
[1] = cynomolgus monkeys, from Table 23 of U.S. Pat. No. 7,575,068 B2, cited from earlier work; for % F (percent bioavailability of loxoribine administered as prodrug): oral prodrug of loxoribine
[2] = Oral bioavailability in cynomolgus monkeys; format: in vivo; conditions: vs loxoribine administered orally as itself or as prodrugs
Description: From two to four male or female cynomolgus monkeys were used for animal testing studies. The study compounds were formulated in a vehicle (e.g. 50 mM Phosphate Buffered Saline, pH 7.4) appropriate for animal oral or intravenous administration. Parent compounds 1, 5, 26 and 27 were administered at 1 mg/kg by IV administration whereas prodrugs of the corresponding compounds were administered at 2 mg/kg. After dosing, 0.5 mL blood samples were collected typically at 0.083, 0.33, 1, 2, 4, 6, 8, 12 and 24 hours post-dosing (iv administration) or 0.25, 0.5, 1, 2, 4, 6, 8, 12 and 24 hours post-dosing (oral administration). Plasma was separated from blood and analyzed for the active agonists by well-known LC-MS techniques. […] Percent bioavailability (F %) of compounds when administered orally as prodrug was calculated from the ratio of dose-normalized AUC of parent from oral prodrug administration to that of dose-normalized parent AUC from IV parent administration and reported in Table 4.

[3] = biological target: human TLR7 (Homo sapiens (Human), UniProt Q9NYK1); assay: TLR7 reporter assay (HEK293-TLR-NF-κB inducible SEAP reporter); format: cell-based; conditions: HEK293 cells stably expressing human TLR7 with NF-κB-driven SEAP reporter; 15-24 hours
Text: (§1) The engagement of TLRs by cognate ligands triggers downstream signaling cascades, leading to the activation of NF-κB and other transcription factors which initiate various immunomodulatory effects. The human embryonic kidney cell line, HEK293, is essentially non-responsive to TLR agonists, but ectopic expression of TLRs in these cells allows cognate agonists to activate endogenous NF-κB. Accordingly, the HEK293-TLR-NF-κB inducible reporter system is used to assay TLR agonists. HEK293 cell lines stably expressing human TLR7 or TLR8 together with an NF-κB-driven-secreted alkaline phosphatase (SEAP) reporter were invented at InvivoGen (San Diego, Calif., USA) and used to assess compounds of the present invention for TLR7 and TLR8 agonist activities. Cells were seeded at 2-5×10^4 cells/well in 96 well plates ([…]) and treated with various concentrations of compound (10 μl) for 15-24 hours. SEAP activity was determined by measuring OD at 650 nm; the media used to culture the cell lines contains the reagents required for SEAP detection. The EC50 values in Table 2 are calculated from fitting the dose response of measured SEAP activity for each compound to the following equation: Y=ymax*c^nh/(EC50^nh+c^nh)+blank where Y is the experimentally measured OD650 at concentration c of test article, blank is the observed OD650 in the absence of TLR7 agonist, ymax is the difference between the measured OD650 in the presence of either 28.5 μM resiquimod or 1.675 μM CL307 and the blank and values of EC50 and nh are determined by nonlinear least squares analysis.

[4] = system: interferon-α production in hPBMCs; assay: Induction of interferon-α production in hPBMCs; format: cell-based, human; conditions: interferon-α production from hPBMCs; for Weighted MEC: geometric mean of all individual MECs across all donors, 24 hours; for individual MEC values: per donor
Description: Treatment of hPBMCs with a TLR7 agonist typically induces substantial production of interferon-α as well as lesser amounts of a variety of other cytokines and chemokines. A typical experiment uses hPBMCs isolated from a healthy donor and placed in replicate cell culture wells; typically 1.0-7.5×10^6 cells are placed in each well. Test compound is added and the cells cultured for 24 hours at 37° C. in a humidified atmosphere containing 5% CO2 post-addition; untreated controls are included. Secreted interferon-α production is measured using an a multisubtype interferon-α ELISA kit like those from PBL Assay Sciences or specifically as IFNα2a as part of a panel of cytokines and chemokines using luminex methodologies. The minimal effective concentration (MEC) is the minimum concentration in a dose response curve where a significant increase in interferon-α production (generally at least 20 pg/ml) is observed above baseline. MEC values for each compound are determined for at least three donors. The weighted MEC for each compound is the geometric mean of all individual MECs across all donors. Concentrations tested typically consist of a two-fold dilution series starting at 100 μM. In the calculation of weighted MEC, any value >100 μM is arbitrarily set to 200 μM unless all MECs for a compound exceed 100 μM

[5] = system: B16-F10 rodent melanoma tumor cells; assay: Antitumor activity in rodent model (B16-F10 syngenic); format: in vivo, mice; conditions: IV by tail vein, 10 total doses, two weeks after randomization
Description: B16-F10 rodent melanoma tumor cells were injected into the flank of 32 mice in a syngenic model. […] Administration of the drugs was initiated on the following day. Tumor volumes were monitored for two weeks.

[6] = biological target: human TLR8 (Homo sapiens (Human), UniProt Q9NR97); assay: TLR8 reporter cell assay (HEK293-TLR-NF-κB inducible SEAP reporter); format: cell-based; conditions: incubation with resiquimod
Text: as §1, with “The EC50 values in Table 2 are calculated from fitting the dose response of measured SEAP activity for each compound to the following equation: Y=ymax*c^nh/(EC50^nh+c^nh)+blank where Y is the experimentally measured OD650 at concentration c of test article, blank is the observed OD650 in the absence of TLR7 agonist, ymax is the difference between the measured OD650 in the presence of either 28.5 μM resiquimod or 1.675 μM CL307 and the blank and values of EC50 and nh are determined by nonlinear least squares analysis.” left out

Sequence of human TLR7 (Q9NYK1 27-1049): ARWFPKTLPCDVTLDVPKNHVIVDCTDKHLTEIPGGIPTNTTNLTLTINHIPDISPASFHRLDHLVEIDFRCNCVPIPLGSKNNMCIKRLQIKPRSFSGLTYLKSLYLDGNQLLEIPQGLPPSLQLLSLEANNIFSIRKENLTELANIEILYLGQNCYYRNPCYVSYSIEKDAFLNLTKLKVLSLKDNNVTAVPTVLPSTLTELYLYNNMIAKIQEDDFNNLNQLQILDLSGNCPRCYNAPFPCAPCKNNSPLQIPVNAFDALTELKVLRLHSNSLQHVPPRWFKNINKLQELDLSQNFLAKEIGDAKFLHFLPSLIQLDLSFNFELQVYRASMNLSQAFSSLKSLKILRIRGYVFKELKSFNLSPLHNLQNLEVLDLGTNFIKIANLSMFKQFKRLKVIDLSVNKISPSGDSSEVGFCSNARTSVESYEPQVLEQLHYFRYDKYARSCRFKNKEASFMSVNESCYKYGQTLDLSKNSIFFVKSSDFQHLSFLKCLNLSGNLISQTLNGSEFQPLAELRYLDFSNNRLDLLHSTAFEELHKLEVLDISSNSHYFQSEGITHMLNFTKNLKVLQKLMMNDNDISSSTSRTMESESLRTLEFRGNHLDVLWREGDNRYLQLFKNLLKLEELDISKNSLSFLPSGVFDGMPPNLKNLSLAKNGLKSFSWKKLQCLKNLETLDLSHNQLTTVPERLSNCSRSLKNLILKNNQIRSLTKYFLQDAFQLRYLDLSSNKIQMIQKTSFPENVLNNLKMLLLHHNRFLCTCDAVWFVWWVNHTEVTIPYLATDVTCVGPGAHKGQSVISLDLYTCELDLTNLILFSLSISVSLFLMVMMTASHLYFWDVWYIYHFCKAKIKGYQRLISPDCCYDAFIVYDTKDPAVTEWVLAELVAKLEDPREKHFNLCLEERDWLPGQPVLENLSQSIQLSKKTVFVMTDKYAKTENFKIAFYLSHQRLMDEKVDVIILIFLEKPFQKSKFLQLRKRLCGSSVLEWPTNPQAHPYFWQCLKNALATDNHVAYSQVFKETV
Sequence of human TLR8 (Q9NR97 27-1041): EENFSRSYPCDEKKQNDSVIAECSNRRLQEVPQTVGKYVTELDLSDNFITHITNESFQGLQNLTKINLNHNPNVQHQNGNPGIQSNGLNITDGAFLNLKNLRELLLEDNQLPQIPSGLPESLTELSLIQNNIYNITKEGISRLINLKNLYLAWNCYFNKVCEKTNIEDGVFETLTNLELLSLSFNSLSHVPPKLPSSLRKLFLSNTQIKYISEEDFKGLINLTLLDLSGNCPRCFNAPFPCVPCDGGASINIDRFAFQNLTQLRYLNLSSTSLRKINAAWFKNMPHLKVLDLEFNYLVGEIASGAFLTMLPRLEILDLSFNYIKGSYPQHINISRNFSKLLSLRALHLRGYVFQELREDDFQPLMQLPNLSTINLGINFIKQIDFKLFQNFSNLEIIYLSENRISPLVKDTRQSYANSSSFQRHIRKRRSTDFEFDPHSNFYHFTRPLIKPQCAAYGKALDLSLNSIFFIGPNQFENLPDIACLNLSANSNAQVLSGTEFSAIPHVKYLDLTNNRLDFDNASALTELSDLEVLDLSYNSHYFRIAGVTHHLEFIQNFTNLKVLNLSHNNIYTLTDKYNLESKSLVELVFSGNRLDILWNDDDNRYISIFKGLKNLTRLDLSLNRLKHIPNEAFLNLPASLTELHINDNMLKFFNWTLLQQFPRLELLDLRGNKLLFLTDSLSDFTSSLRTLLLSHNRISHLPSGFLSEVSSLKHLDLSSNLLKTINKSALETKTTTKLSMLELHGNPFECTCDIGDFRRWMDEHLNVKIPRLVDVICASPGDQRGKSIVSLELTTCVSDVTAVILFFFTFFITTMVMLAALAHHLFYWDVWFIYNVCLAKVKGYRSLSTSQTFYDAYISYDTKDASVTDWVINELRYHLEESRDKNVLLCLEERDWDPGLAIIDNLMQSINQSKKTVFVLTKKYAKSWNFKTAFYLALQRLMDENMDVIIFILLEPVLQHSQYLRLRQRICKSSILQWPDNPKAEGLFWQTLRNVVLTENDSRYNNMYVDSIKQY

| EC50 [3] [µM] | Compound | Weighted MEC [4] | individual MEC values [4] [µM] | further results |
| --- | --- | --- | --- | --- |
| 519 | C#CCn1c(=O)n([C@@H]2O[C@H](CO)C[C@H]2O)c2nc(N)[nH]c(=O)c21 [Compound 26, 2-Amino-9-((2R,3R,5S)-3-hydroxy-5-(hydroxymethyl)tetrahydrofuran-2-yl)-7-(prop-2-yn-1-yl)-7,9-dihydro-1H-purine-6,8-dione] | less than or equal to 40 μM and 31 μM | < 100 | Systemic delivery by prodrugs compared with loxoribine [2]: substantially greater than loxoribine |
| 512 | Nc1nc2c(c(=O)[nH]1)n(Cc1cccc(F)c1)c(=O)n2[C@@H]1O[C@H](CO)C[C@H]1O [Compound 34, 2-Amino-7-(3-fluorobenzyl)-9-((2R,3R,5S)-3-hydroxy-5-(hydroxymethyl)tetrahydrofuran-2-yl)-7,9-dihydro-1H-purine-6,8-dione] | less than or equal to 40 μM and 40 μM | < 100 |  |
| 1210 | C=CCn1c(=O)n([C@@H]2O[C@H](CO)C[C@H]2O)c2nc(N)[nH]c(=O)c21 [Compound 36, 7-Allyl-2-amino-9-((2R,3R,5S)-3-hydroxy-5-(hydroxymethyl)tetrahydrofuran-2-yl)-7,9-dihydro-1H-purine-6,8-dione] | 100 µM |  |  |
| 564 | CCCCn1c(=O)n([C@@H]2O[C@H](CO)C[C@H]2O)c2nc(N)[nH]c(=O)c21 [Compound 37, 2-Amino-7-butyl-9-((2R,3R,5S)-3-hydroxy-5-(hydroxymethyl)tetrahydrofuran-2-yl)-7,9-dihydro-1H-purine-6,8-dione] | 50 µM |  |  |

More lines, now with the values behind:

| Compound | EC50 [3] [µM] | Weighted MEC [4] | individual MEC values [4] [µM] | further results |
| --- | --- | --- | --- | --- |
| C=CCn1c(=O)n([C@@H]2O[C@H](CO)[C@@H](O)[C@H]2O)c2nc(N)nc(OCC)c21 [7-allyl-2-amino-6-ethoxy-9-β-D-ribofuranosyl-7,9-dihydropurin-8-one] |  |  |  | % F (percent bioavailability of loxoribine administered as prodrug) [1]: 9% |
| C=CCn1c(=O)n([C@@H]2O[C@H](CO)[C@@H](O)[C@H]2O)c2nc(N)ncc21 [7-allyl-2-amino-9-β-D-ribofuranosyl-7,9-dihydropurin-8-one] |  |  |  | % F (percent bioavailability of loxoribine administered as prodrug) [1]: 13% |
| Nc1nc2c(c(=O)[nH]1)n(CC1CC1)c(=O)n2[C@@H]1O[C@H](CO)[C@H](O)[C@H]1O [Compound 1, 2-Amino-7-(cyclopropylmethyl)-9-((2R,3R,4R,5R)-3,4-dihydroxy-5-(hydroxymethyl)tetrahydrofuran-2-yl)-7,9-dihydro-1H-purine-6,8-dione] | 188 | 66* μM |  | Systemic delivery by prodrugs compared with loxoribine [2]: substantially greater than loxoribine |
| C#CCn1c(=O)n([C@@H]2O[C@H](CO)[C@H](O)[C@H]2O)c2nc(N)[nH]c(=O)c21 [Compound 5, 2-Amino-9-((2R,3R,4R,5R)-3,4-dihydroxy-5-(hydroxymethyl)tetrahydrofuran-2-yl)-7-(prop-2-yn-1-yl)-7,9-dihydro-1H-purine-6,8-dione] | 292 | less than or equal to 40 μM and 34 μM | < 100 | Mean tumor growth inhibition (% TGI) versus the control group ([5]; group (ii): 40 mg/kg, BID for five consecutive days): 40%; Mean tumor growth inhibition (% TGI) versus the control group ([5]; group (iii): 40 mg/kg, BID every other day): 64% |
| C#CCn1c(=O)n([C@@H]2O[C@H](CO)[C@@H](F)[C@H]2O)c2nc(N)[nH]c(=O)c21 [Compound 27, 2-Amino-9-((2R,3S,4S,5R)-4-fluoro-3-hydroxy-5-(hydroxymethyl)tetrahydrofuran-2-yl)-7-(prop-2-yn-1-yl)-7,9-dihydro-1H-purine-6,8-dione] | 376 | less than or equal to 40 μM and 23 μM | < 100 | Systemic delivery by prodrugs compared with loxoribine [2]: substantially greater than loxoribine |
| Nc1nc2c(c(=O)[nH]1)n(Cc1ccc(C(F)(F)F)cc1)c(=O)n2[C@@H]1O[C@H](CO)C[C@H]1O [Compound 35, 2-Amino-9-((2R,3R,5S)-3-hydroxy-5-(hydroxymethyl)tetrahydrofuran-2-yl)-7-(4-(trifluoromethyl)benzyl)-7,9-dihydro-1H-purine-6,8-dione] | 1160 | 79* μM |  |  |
| C=CCn1c(=O)n([C@@H]2O[C@H](CO)[C@@H](O)[C@H]2O)c2nc(N)[nH]c(=O)c21 [loxoribine, reference compound] | 322 | 136* μM |  | % F (intrinsic bioavailability of loxoribine) ([1]; loxoribine administered orally as loxoribine itself): 2%^b |
| CCOCc1nc2c(N)nc3ccccc3c2n1CC(C)(C)O [resiquimod] |  |  |  | induction of SEAP production in the TLR8 reporter cell assay [6]: Substantial induction of SEAP production |
